Values of other authors as cited in patent publication US20100273258A1, “Interactive Microenvironment System” (The Ohio State University, priority 2009, published 2010).

How the values were obtained:
[1] = system: human breast cancer cell lines
[2] = system: DNA methylation of cancer suppressor genes; conditions: versus 5-Aza-2′-deoxycystidine and Trichostatin A (TSA)

| SMILES | anti-human breast cancer proliferative potency relative to racemic (±)-GP ([1]; previously published data) [fold] | demethylating agent compared with clinical drugs [2] | anti-proliferative effects ([1]; MCF-7, MCF-7Adr and MDA-MB-231 human breast cancer cell lines) |
| --- | --- | --- | --- |
| Cc1cc2c(C(C)C)c(O)c(O)c(C=O)c2c(O)c1-c1c(C)cc2c(C(C)C)c(O)c(O)c(C=O)c2c1O [(−)-GP] | 10 | much better demethylating agent |  |
| Cc1cc2c(C(C)C)c(O)c(O)c(C=O)c2c(O)c1-c1c(C)cc2c(C(C)C)c(O)c(O)c(C=O)c2c1O (racemic) [(±)-GP] |  |  | anti-proliferative effects |
